Values of other authors in patent US20050159439A1, “Management of postoperative pain” (priority 2001, published 2005).

System: subjects operated on for lumbar disc herniation
Settings: 10 mg epidural morphine, lumbar disc herniation surgery

CN1CC[C@]23c4c5ccc(O)c4O[C@H]2[C@@H](O)C=C[C@H]3[C@H]1C5 [morphine]
Pain relief: significant pain relief | Side effect: urinary retention was the relevant side effect
